{"source": "patent US20230270804A1", "about": "“ANTI-HYPERCHOLESTEROLEMIA COMPOSITION AND A METHOD OF MANUFACTURING THE SAME” (NBI BIOSCIENCES PRIVATE LIMITED, priority 2020, published 2023)", "key": {"HMG CoA Reductase": {"target": "T1, HMG CoA Reductase (Rattus norvegicus, UniProt P51639)", "T1 construct": "The tissue homogenate was prepared by homogenizing 1 gm of tissue (liver) with 10 ml of saline arsenate solution; from tissue; host or cells: rat liver homogenate", "T1 sequence (P51639 1-887)": "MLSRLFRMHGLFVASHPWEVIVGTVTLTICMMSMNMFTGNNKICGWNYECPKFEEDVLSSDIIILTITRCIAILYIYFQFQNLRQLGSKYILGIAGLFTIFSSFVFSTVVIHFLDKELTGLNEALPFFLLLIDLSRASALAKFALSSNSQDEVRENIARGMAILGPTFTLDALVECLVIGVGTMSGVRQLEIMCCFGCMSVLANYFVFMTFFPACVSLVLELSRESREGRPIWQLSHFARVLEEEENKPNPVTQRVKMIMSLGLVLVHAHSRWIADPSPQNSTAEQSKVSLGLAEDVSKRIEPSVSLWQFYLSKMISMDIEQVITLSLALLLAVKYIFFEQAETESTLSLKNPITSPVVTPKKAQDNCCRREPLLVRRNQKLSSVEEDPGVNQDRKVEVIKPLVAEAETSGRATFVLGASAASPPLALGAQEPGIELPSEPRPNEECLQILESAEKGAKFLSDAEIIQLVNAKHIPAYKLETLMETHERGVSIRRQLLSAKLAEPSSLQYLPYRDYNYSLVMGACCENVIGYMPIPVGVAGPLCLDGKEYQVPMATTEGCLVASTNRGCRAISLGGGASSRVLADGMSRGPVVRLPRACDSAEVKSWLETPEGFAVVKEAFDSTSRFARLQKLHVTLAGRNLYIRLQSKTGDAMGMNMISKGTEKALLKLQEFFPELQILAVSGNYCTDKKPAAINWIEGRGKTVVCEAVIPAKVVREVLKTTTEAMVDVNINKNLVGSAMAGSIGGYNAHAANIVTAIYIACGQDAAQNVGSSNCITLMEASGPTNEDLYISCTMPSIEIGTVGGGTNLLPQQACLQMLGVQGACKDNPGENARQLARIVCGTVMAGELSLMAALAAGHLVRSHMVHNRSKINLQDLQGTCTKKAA", "assay": "Prophylactic study: HMG CoA reductase activity in liver homogenate", "format": "in vivo, Wistar strain albino rats", "settings": "HFD+normal diet, after sacrifice", "protocol": "1.5-2 ml blood sample was taken from retino-orbital chamber in vials for biochemical estimations at every 15 days. Investigations performed included detailed Total Cholesterol—TC (mg/dl), Triglyceride—TG (mg/dl), High Density Lipoprotein—HDL-C (mg/dl), Low Density Lipoprotein—LDL-C (mg/dl), Very Low-Density Lipoprotein—VLDL (mg/dl), WBC (10^3/u1), RBC (10^6/u1), Hb (g/dl), PCV (%), Reticulocyte (%), Platelet count 10^5/mm^3, Clotting time (Sec), Neutrophils, Lymphocyte, Monocyte and Eosinophil. The estimations were done with Ecoline kits from Erba Mannheim, ERBA diagnostics Mannheml, Germany using Semi Autoanalyzer RX50 of MicroLabs Instruments and COUNCELL21 of Tulip Diagnostics Pvt. Ltd. Lipid peroxidation (Plasma & Liver), HMG Co-Reductase, Creatine phosphokinase (CPK), Lactate dehydrogenase (LDH), SGOT and SGPT were estimated at the end of both the studies using the kits.\nThe tissue homogenate was prepared by homogenizing 1 gm of tissue (liver) with 10 ml of saline arsenate solution. Further equal volumes of the fresh 10% tissue homogenate and diluted perchloric acid were mixed and allowed to stand for 5 minute and centrifuge (2000 rpm, 10 minutes). […] The readings were taken after 10 minutes at 540 nm vs. a similarly treated saline/arsenate blank."}, "[1]": {"system": "heart, spleen, lungs, kidney, liver, Aorta", "assay": "Therapeutic study: histopathology (heart, spleen, lungs, kidney, liver, aorta)", "format": "in vivo", "from_the_text": "FIG. 7 depicts the histopathological images of heart. […] FIG. 8 depicts the histopathological images of spleen. […] FIG. 9 depicts the histopathological images of lungs. […] FIG. 10 depicts the histopathological images of kidney. […] FIG. 11 depicts the histopathological images of liver.\nThe long-term rise in the electrolyte such as Na and are associated with blood pressure disorders impacting the heart."}}}
{"smiles": "CC(C)c1c(C(=O)Nc2ccccc2)c(-c2ccccc2)c(-c2ccc(F)cc2)n1CC[C@@H](O)C[C@@H](O)CC(=O)O", "note": "[Statin, Atorvastatin]", "values": [{"measurement": "HMG Co Reductase", "setting": "HMG CoA Reductase", "result": "163.92 ± 4.02", "unit": "U/mg"}, {"measurement": "histopathology of heart", "setting": "[1]; HFD", "result": "cardiac muscle were found stressed"}, {"measurement": "aorta plaque reduction", "setting": "[1]; HFD continued", "result": "mild"}, {"measurement": "aorta plaque reduction", "setting": "[1]; HFD discontinued", "result": "moderate reduction in the plaque"}, {"measurement": "damage to the endothelial lining", "setting": "[1]; aorta histopathology", "result": "mild damage to the endothelial lining"}]}
